From PubChem BioAssay AID214 (DTP/NCI, 2004) come the findings set out here.

In this assay the test system is B6C3F1 mice, colon carcinoma 38 s.c., T/C. The assay is described as follows: NCI In Vivo Anticancer Drug Screen. Data for tumor model Colon Carcinoma 38 (subcutaneous) in B6C3F1 mice. Conditions: endpoint: median tumor weight (est.), higher = larger tumour. The method, then:
The antitumor activity of compounds was measured in mice bearing transplantable tumors. Survival or tumor size were measured and the results are expressed as the measurement made in the treated group (T) divided by the measurement made in the vehicle treated control group (C). The tumor model used in this assay is Colon Carcinoma 38 (subcutaneous) in B6C3F1 mice

Where “and” joins values, the source holds several entries; their conditions need not be identical. Equal values may be shown once. Results filed as inconclusive are left out.

Consider `CCC/C=C/C=C/C(=O)OC1/C(=C/C(=O)OC)CC2CC(C(C)O)OC(=O)CC(O)CC3CC(OC(C)=O)C(C)(C)C(O)(CC4C/C(=C/C(=O)OC)CC(/C=C/C(C)(C)C1(O)O2)O4)O3` (stereo unspecified), for which the T/C is, setting by setting: (dose: 37.5 micrograms/kg/injection, schedule: Q07DX002 (ip), vehicle: saline + alcohol) 191 % of control; (dose: 300.0 micrograms/kg/injection, schedule: Q07DX002 (ip), vehicle: saline + alcohol) 74 % of control.

Consider `O=P1(NCCCl)OCCCN1CCCl` (stereo unspecified), for which, where the note is “dose: 30.0 mg/kg/injection, schedule: Q01DX006 (ip), vehicle: saline”, the T/C was 61 % of control.

As for `C#CCNC1=C(C)C(=O)C2=C(C1=O)[C@H](COC(N)=O)[C@]1(OC)[C@@H]3N[C@@H]3CN21`, the T/C (dose: 1.5 mg/kg/injection, schedule: Q07DX002 (ip), vehicle: distilled water + Tween-80) was 50 % of control; the T/C (dose: 3.0 mg/kg/injection, schedule: Q07DX002 (ip), vehicle: distilled water + Tween-80) was 60 % of control; the T/C (dose: 6.0 mg/kg/injection, schedule: Q07DX002 (ip), vehicle: distilled water + Tween-80) is 36 % of control; the T/C (dose: 12.0 mg/kg/injection, schedule: Q07DX002 (ip), vehicle: distilled water + Tween-80) was 9 % of control.

On to `O.O.[NH-]C1CCCCC1[NH-].[Pt+2]` (stereo unspecified), for which the T/C by setting is: (dose: 10.0 mg/kg/injection, schedule: Q07DX002 (ip), vehicle: dextrose) 72 % of control; (dose: 20.0 mg/kg/injection, schedule: Q07DX002 (ip), vehicle: dextrose) 60 % of control; (dose: 40.0 mg/kg/injection, schedule: Q07DX002 (ip), vehicle: dextrose) 29 % of control; (dose: 80.0 mg/kg/injection, schedule: Q07DX002 (ip), vehicle: dextrose) 16 % of control and 17 % of control.
